Where two headings read alike, the source gives them in different places.
What was measured:
[1] = biological target: T1, α-7 nicotinic ACh receptor ion channel expressed in mammalian HEK 293 cells (Rattus norvegicus, UniProt Q05941); experiment: Ca2+-sensitive, fluorescence-based FLIPR assay for α-7 nicotinic acetylcholine receptor channel function (agonist activity); type: cell-based
Experimental: I) α7 Nicotinic Acetycholine Receptor Binding. Membranes were prepared for binding using HEK293 cells stably expressing the rat α7 nicotinic acetycholine receptor (rat α7 nAChR). Cells were homogenized at 4° C. in hypotonic lysis buffer consisting of 10 mM Tris (pH 7.4), 5 mM EDTA and protease inhibitors and centrifuged at 32000×g for 20 minutes. The pellet was washed once in membrane wash buffer consisting of 50 mM Tris (pH 7.4), 1 mM EDTA and protease inhibitors and centrifuged at 32000×g for 20 minutes. This pellet was then resuspended in assay buffer consisting 50 mM KH2PO4 (pH 7.4 at 25° C.), 1 mM EDTA, 0.005% Triton-X 100 and 0.1% (v/v) Sigma Protease Inhibitor Cocktail. Aliquots were then frozen in dry ice/ethanol and kept at −80° C. until the day of the assay. II) A Ca^2+-Sensitive, Fluorescence-Based Assay α-7 for Nicotinic Acetylcholine Receptor Channel Function In Mammalian Cells (“FLIPR”). Summary: Lead compounds are evaluated for agonist activity at α-7, α3β4, α4αβ2, and α1β1δ1ε sub-types of nicotinic ACh receptor ion channels expressed in mammalian HEK 293 cells. Agonist potency and efficacy values are determined from kinetic fluorescence Ca^2+ influx measurements made using a 384 well FLIPR (Fluorescence Image Plate Reader). […] The basal fluorescence from the cells is monitored in real time, followed by the acute addition of test compounds. […]
Target sequence in this assay (Q05941 23-502 limits assumed): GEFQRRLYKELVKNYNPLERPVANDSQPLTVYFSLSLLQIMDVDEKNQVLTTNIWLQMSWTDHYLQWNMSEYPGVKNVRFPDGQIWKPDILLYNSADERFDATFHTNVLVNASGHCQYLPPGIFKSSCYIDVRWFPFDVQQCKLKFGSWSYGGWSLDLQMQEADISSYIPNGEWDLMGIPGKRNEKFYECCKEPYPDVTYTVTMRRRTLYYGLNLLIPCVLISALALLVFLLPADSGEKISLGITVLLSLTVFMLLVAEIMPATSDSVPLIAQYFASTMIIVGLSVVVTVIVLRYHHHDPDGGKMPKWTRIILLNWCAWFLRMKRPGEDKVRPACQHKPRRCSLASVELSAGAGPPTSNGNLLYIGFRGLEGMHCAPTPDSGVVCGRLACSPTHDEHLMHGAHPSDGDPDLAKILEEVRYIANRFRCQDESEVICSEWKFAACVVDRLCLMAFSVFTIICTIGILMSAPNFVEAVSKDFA

[2] = biological target: T1, α-7 nicotinic ACh receptor ion channel expressed in mammalian HEK 293 cells; experiment: as above; type: cell-based; design: expressed in transfected cells; details: Ca2+ flux, HEK-293 cells, Fluo-4
Experimental: I) α7 Nicotinic Acetycholine Receptor Binding. Membranes were prepared for binding using HEK293 cells stably expressing the rat α7 nicotinic acetycholine receptor (rat α7 nAChR). Cells were homogenized at 4° C. in hypotonic lysis buffer consisting of 10 mM Tris (pH 7.4), 5 mM EDTA and protease inhibitors and centrifuged at 32000×g for 20 minutes. The pellet was washed once in membrane wash buffer consisting of 50 mM Tris (pH 7.4), 1 mM EDTA and protease inhibitors and centrifuged at 32000×g for 20 minutes. This pellet was then resuspended in assay buffer consisting 50 mM KH2PO4 (pH 7.4 at 25° C.), 1 mM EDTA, 0.005% Triton-X 100 and 0.1% (v/v) Sigma Protease Inhibitor Cocktail. Aliquots were then frozen in dry ice/ethanol and kept at −80° C. until the day of the assay. II) A Ca^2+-Sensitive, Fluorescence-Based Assay α-7 for Nicotinic Acetylcholine Receptor Channel Function In Mammalian Cells (“FLIPR”). Summary: Lead compounds are evaluated for agonist activity at α-7, α3β4, α4αβ2, and α1β1δ1ε sub-types of nicotinic ACh receptor ion channels expressed in mammalian HEK 293 cells. Agonist potency and efficacy values are determined from kinetic fluorescence Ca^2+ influx measurements made using a 384 well FLIPR (Fluorescence Image Plate Reader). […] In this assay, channel expressing HEK cell lines seeded in 384 well assay plates are loaded with a membrane permeant fluorescent Ca^2+ indicator dye, whose 510 nm green emission signal increases in response to elevation of intracellular Ca^2+ concentration. The basal fluorescence from the cells is monitored in real time, followed by the acute addition of test compounds.
Materials and Methods: Reagents: The acetomethoxy (AM) ester of the Ca^2+ indicator dye Fluo-4 was obtained from InVitrogen, (Carlsbad, Calif.). Acetylcholine and all buffer constituents were purchased from Sigma Chemical Company, St. Louis, Mo. G418 and Minimal Essential Medium were purchased from InVitrogen Life Technologies, Carlsbad, Calif. Fetal bovine serum was purchased from (InVitrogen, Carlsbad, Calif.).
Cell Culture: HEK-293 cells were grown in Minimal Essential Medium containing 10% (v/v) fetal bovine serum at 37° C. in a 5% CO2 incubator. HEK-293 cells stably expressing the ion channels were grown in the same medium with the addition of 500 μg/ml G418.
Ca^2+ flux assays of Ca^2+ channels expressed in HEK-293 cells: HEK-293 cells expressing the ion channels of interest were plated in 384 well, black-walled, clear-bottomed, poly-D-lysine coated plates at a density of ˜20,000 cells/well in 20 μl of Minimal Essential Medium containing 10% (v/v) fetal bovine serum and incubated for 2 days at 29° C. in a 5% CO2 incubator. Prior to assay, cells were loaded with the Fluo-4 AM ester. […] Dye loading was allowed to proceed for 90 minutes at room temperature at which time the dye loading solution was removed and replaced with 40 μl/well of Hanks buffer. Cells loaded with dye were loaded onto a FLIPR384 (Molecular Devices, Sunnyvale, Calif.). Fluo-4 dye was excited using the 488 nm line of an argon laser. Emission was filtered using a 540+/−30 nm bandpass filter. For evaluation of the effects of test compounds using the Ca^2+ flux assay, compounds to be tested were provided in assay ready plates. For nicotinic receptor ion channel expressing cells, the assay was initiated by the addition of 20 μl/well of Hanks buffer containing test compounds. For all assays, data were collected at 1 Hz for 10 seconds (baseline), at which time the compound containing stimulus buffers are added, and further measurements collected at 0.33 Hz for 3 min.
Data Analysis: The statistical robustness of the nicotinic receptor Ca^2+ flux assays is determined from blanks and totals wells. […] The raw fluorescence units data files generated on the FLIPR plate reader are automatically exported and processed by in-house data analysis tools.
Target sequence in this assay (Q05941 23-502): as the sequence (Q05941 23-502 limits assumed) above

[3] = FLIPR α7 activity rating (EC50, nM), agonist potency class
[4] = agonist potency class, read-out: FLIPR α7 activity rating (EC50)

EC50 [2, 4] | Compound | EC50 [2, 3] | further results
 | c1ccc2sc(NC3=NC[C@@]4(CN5CC[C@@H]4C5)O3)nc2c1 |  | EC50 [1]: < 100 nM
 | Cc1cn(-c2cc(NC3=NC[C@@]4(C[N@@]5CC[C@@H]4C5)O3)ncn2)cn1 [Example 22, (3R,4R)—N-(6-(4-Methyl-1H-imidazol-1-yl)pyrimidin-4-yl)-4′H-1-azaspiro[bicyclo[2.2.1]heptane-3,5′-oxazol]-2′-amine] | 100 to 1000 nM | 
< 100 nM | COc1c(NC2=NC[C@@]3(C[N@@]4CC[C@@H]3C4)O2)ncnc1N1CCCC1 [Example 23, (3R,4R)—N-(5-Methoxy-6-(pyrrolidin-1-yl)pyrimidin-4-yl)-4′H-1-azaspiro[bicyclo[2.2.1]heptane-3,5′-oxazol]-2′-amine] |  | 
< 100 nM | c1ccc2nc(NC3=NC[C@@]4(C[N@@]5CC[C@@H]4C5)O3)nnc2c1 [Example 24, (3R,4R)—N-(Benzo[e][1,2,4]triazin-3-yl)-4′H-1-azaspiro[bicyclo[2.2.1]heptane-3,5′-oxazol]-2′-amine] |  | 
< 100 nM | Clc1ccc2oc(NC3=NC[C@@]4(C[N@@]5CC[C@@H]4C5)O3)nc2c1 [Example 25, (3R,4R)—N-(5-Chlorobenzo[d]oxazol-2-yl)-4′H-1-azaspiro[bicyclo[2.2.1]heptane-3,5′-oxazol]-2′-amine] |  | 
 | c1nc(NC2=NC[C@@]3(C[N@@]4CC[C@@H]3C4)O2)c2sccc2n1 [Example 27, (3R,4R)—N-(Thieno[3,2-d]pyrimidin-4-yl)-4′H-1-azaspiro[bicyclo[2.2.1]heptane-3,5′-oxazol]-2′-amine] | 100 to 1000 nM | 
 | Cc1csc2c(NC3=NC[C@@]4(C[N@@]5CC[C@@H]4C5)O3)ncnc12 [Example 28, (3R,4R)—N-(7-Methylthieno[3,2-d]pyrimidin-4-yl)-4′H-1-azaspiro[bicyclo[2.2.1]heptane-3,5′-oxazol]-2′-amine] | 100 to 1000 nM | EC50 ([2]; FLIPR α7-HI (EC50, nM), agonist potency): 222 nM
< 100 nM | Cc1ccc2nc(NC3=NC[C@@]4(C[N@@]5CC[C@@H]4C5)O3)oc2c1 [Example 29, (3R,4R)—N-(6-Methylbenzo[d]oxazol-2-yl)-4′H-1-azaspiro[bicyclo[2.2.1]heptane-3,5′-oxazol]-2′-amine] |  | 

Source: US8278320B2, “Azabicyclo[2.2.1]heptane compounds as alpha-7 nicotinic acetylcholine receptor ligands” (Bristol-Myers Squibb Company, priority 2009, dated 2012)
